Results from patent US20190175507A1, “COMPOSITIONS FOR ORAL ADMINISTRATION OF ACTIVE AGENTS” (Tamarisk Technologies Group LLC, priority 2016, published 2019).

Assay: Pharmacokinetics of resveratrol-containing particles in orally dosed Sprague-Dawley rats
Type: in vivo
Conditions: rat, plasma, 20 mg/kg
Description: Parameters were estimated using Watson pharmacokinetic software 7.4.2 (Thermo Electron Corporation) using a non-compartmental approach consistent with the various routes of administration. All parameters were generated from […] individual animal concentrations in plasma. Parameters were estimated using nominal sampling times to be relative to the start of each dose administration (within an acceptable tolerance limit). As no dose formulation samples were analyzed, the nominal calculated dose for active ingredient (20 mg/kg, as per the study protocol, was used for dose-normalization purposes). The area under the test item concentration versus time curve (AUC) was calculated using the linear-log linear trapezoidal method. AUC was not calculated for PK profiles with less than 3 consecutive quantifiable concentrations of test article at separate time points. When practical, the terminal elimination phase of each concentration versus time curve was identified using at least the final three observed concentration values. The slope of the terminal elimination phase was determined using linear regression on the unweighted concentration data. […] The parameters described below were reported to 3 significant figures. Animals were fasted overnight, food was returned 4 hours post dosing. […] Aggregated data is summarized for individual animals in Table 4, below.

concentration at 0.5 h (oral): 78.4 ng/mL
concentration at 1 h (oral): 29.3 ng/mL
concentration at 2 h (oral): 47.2 ng/mL
Cmax (po): 82.4 ng/mL
AUC (po, read-out: AUC(0-x)): 82.8 ng·h/mL
Compound: Oc1ccc(C=Cc2cc(O)cc(O)c2)cc1 [Unencapsulated Resveratrol, Resveratrol]
